# Results published in ChEMBL document CHEMBL5154806, “Synthesis and Profiling of Highly Selective Inhibitors of Methyltransferase DOT1L Based on Carbocyclic C-Nucleosides” (J Med Chem, 2022).
# pEC50, pIC50: −log10 of the molar value. Activity calls are given as the source filed them. The calls are words filed in the database; no cut-off is given here.
# Assays:
# [1] = tested on: SK-N-MC; assay: Cytotoxicity against human SK-N-MC cells assessed as reduction of cell viability up to 10 uM incubated for 72 hrs by celltiter-glo assay; format: functional, cell-based
# [2] = target: T1, Histone-lysine N-methyltransferase, H3 lysine-79 specific (Homo sapiens, UniProt Q8TEK3); assay: Inhibition of DOT1L in human OCI-AML5 cells assessed as decrease in H3K79 methylation at 1 to 10 uM using histone H3 as substrate incubated for 3 days by immunoblotting assay; format: cell-based; conditions: dose 1-10 µM, time 3.0 day, DDE = dose-dependent effect
# Target sequence in this assay (Q8TEK3 whole entry, looked up): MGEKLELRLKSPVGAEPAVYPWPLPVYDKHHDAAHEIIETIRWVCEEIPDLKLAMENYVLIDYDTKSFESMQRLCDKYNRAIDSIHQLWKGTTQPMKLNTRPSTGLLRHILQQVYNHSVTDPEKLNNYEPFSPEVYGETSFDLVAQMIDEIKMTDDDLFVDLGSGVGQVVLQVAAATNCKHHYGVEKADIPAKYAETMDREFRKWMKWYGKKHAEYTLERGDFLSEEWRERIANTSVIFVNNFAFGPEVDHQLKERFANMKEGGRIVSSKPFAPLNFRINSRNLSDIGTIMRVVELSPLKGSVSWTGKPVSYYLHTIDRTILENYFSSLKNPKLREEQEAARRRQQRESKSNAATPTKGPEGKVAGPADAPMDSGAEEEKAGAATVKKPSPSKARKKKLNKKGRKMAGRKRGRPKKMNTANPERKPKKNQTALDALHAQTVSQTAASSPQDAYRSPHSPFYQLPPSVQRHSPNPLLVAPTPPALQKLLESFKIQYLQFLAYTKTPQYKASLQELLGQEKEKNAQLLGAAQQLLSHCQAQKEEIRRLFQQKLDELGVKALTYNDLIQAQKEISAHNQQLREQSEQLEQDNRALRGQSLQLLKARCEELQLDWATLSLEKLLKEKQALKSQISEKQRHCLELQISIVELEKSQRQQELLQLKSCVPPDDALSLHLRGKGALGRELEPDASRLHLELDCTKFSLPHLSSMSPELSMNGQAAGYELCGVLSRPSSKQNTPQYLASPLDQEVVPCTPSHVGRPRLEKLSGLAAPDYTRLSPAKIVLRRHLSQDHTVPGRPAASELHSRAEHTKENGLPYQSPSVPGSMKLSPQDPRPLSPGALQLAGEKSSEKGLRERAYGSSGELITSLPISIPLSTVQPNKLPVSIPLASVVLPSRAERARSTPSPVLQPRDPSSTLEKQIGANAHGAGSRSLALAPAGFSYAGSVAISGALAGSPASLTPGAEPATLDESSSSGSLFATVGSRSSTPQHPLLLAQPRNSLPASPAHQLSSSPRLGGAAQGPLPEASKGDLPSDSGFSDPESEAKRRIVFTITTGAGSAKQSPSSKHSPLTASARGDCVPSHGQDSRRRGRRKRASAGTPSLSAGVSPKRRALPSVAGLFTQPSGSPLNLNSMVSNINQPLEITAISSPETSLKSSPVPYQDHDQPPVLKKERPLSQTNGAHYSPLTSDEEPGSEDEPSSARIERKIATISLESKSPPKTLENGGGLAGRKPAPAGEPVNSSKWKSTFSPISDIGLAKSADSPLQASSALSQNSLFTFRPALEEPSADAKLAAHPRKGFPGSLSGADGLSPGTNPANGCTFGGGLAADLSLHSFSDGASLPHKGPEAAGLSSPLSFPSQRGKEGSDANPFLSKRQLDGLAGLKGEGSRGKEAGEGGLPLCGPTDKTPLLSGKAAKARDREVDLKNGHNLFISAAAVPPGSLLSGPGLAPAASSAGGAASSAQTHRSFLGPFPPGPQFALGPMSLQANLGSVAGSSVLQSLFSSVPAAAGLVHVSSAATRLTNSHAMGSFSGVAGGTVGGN
# [3] = tested on: MOLM-13; assay: Cytotoxicity against human MOLM-13 cells assessed as reduction of cell viability up to 10 uM incubated for 72 hrs by celltiter-glo assay; format: functional, cell-based; conditions: MOLM-13, 72 h
# [4] = tested on: MOLM-13; assay: Downregulation of MEIS1 gene in human MOLM-13 cells at 10 uM measured after 3 to 10 days by qPCR analysis; format: functional, cell-based; conditions: time 3-10 day
# [5] = target: T1, Histone-lysine N-methyltransferase, H3 lysine-79 specific; assay: Inhibition of DOT1L in human OCI-AML5 cells assessed as decrease in H3K79 methylation at 1 to 10 uM using histone H3 as substrate incubated for 5 days by immunoblotting assay; format: cell-based; conditions: dose 1-10 µM, time 5.0 day, DDE = dose-dependent effect
# Target sequence in this assay (Q8TEK3 whole entry, looked up): as above
# [6] = Elimination rate constant in fasted BALB/c mouse at 5 mg/kg, iv administered upto 600 mins by HPLC-MS/MS analysis; format: ADME, organism-based; conditions: BALB/c, in vivo
# [7] = Metabolic stability in BALB/c mouse liver microsomes assessed as parent compound remaining measured after 40 mins; format: ADME, Microsome; conditions: read-out: Stability
# [8] = target: T1, Histone-lysine N-methyltransferase, H3 lysine-79 specific; assay: Inhibition of DOT1L in human SU-DHL-4 cells assessed as decrease in H3K79 methylation at 1 to 10 uM using histone H3 as substrate incubated for 3 days by immunoblotting assay; format: cell-based; conditions: dose 1-10 µM, time 3.0 day, DDE = dose-dependent effect
# Target sequence in this assay (Q8TEK3 whole entry, looked up): as above
# [9] = Cmax in fasted BALB/c mouse at 20 mg/kg, iv administered upto 600 mins by HPLC-MS/MS analysis; format: ADME, organism-based; design: time < 600 min, dose 20 mg/kg, route iv; conditions: in vivo
# [10] = AUC (0 to infinity) in fasted BALB/c mouse at 20 mg/kg, iv administered upto 600 mins by HPLC-MS/MS analysis; format: ADME, organism-based; design: dose 20 mg/kg, time < 600 min, route iv; conditions: in vivo
# [11] = Half life in fasted BALB/c mouse at 5 mg/kg, iv administered upto 600 mins by HPLC-MS/MS analysis; format: ADME, organism-based; conditions: BALB/c, in vivo
# [12] = Volume of distribution in fasted BALB/c mouse at 5 mg/kg, iv administered upto 600 mins by HPLC-MS/MS analysis; format: ADME, organism-based; conditions: in vivo
# [13] = tested on: SU-DHL-5; assay: Cytotoxicity against human SU-DHL-5 cells assessed as reduction of cell viability up to 10 uM incubated for 72 hrs by celltiter-glo assay; format: functional, cell-based; conditions: SU-DHL-5, 72 h
# [14] = Volume of distribution in fasted BALB/c mouse at 20 mg/kg, iv administered upto 600 mins by HPLC-MS/MS analysis; format: ADME, organism-based; conditions: in vivo
# [15] = Tmax in fasted BALB/c mouse at 20 mg/kg, iv administered upto 600 mins by HPLC-MS/MS analysis; format: ADME, organism-based; conditions: in vivo
# [16] = target: T1, Histone-lysine N-methyltransferase, H3 lysine-79 specific; assay: Inhibition of DOT1L in human MOLM-13 cells assessed as decrease in H3K79 methylation at 1 to 10 uM using histone H3 as substrate incubated for 3 days by immunoblotting assay; format: cell-based; conditions: dose 1-10 µM, time 3.0 day, DDE = dose-dependent effect
# Target sequence in this assay (Q8TEK3 whole entry, looked up): as above
# [17] = Clearance in fasted BALB/c mouse at 5 mg/kg, iv administered upto 600 mins by HPLC-MS/MS analysis; format: ADME, organism-based; conditions: in vivo
# [18] = AUC (0 to t) in fasted BALB/c mouse at 5 mg/kg, iv administered upto 600 mins by HPLC-MS/MS analysis; format: ADME, organism-based; design: time < 600 min, dose 5 mg/kg, route iv; conditions: in vivo
# [19] = target: T1, Histone-lysine N-methyltransferase, H3 lysine-79 specific; assay: Inhibition of human DOT1L by hotspot PMT activity assay
# Target sequence in this assay (Q8TEK3 whole entry): as the sequence (Q8TEK3 whole entry, looked up) above
# [20] = Clearance in fasted BALB/c mouse at 20 mg/kg, iv administered upto 600 mins by HPLC-MS/MS analysis; format: ADME, organism-based; conditions: in vivo
# [21] = AUC (0 to infinity) in fasted BALB/c mouse at 5 mg/kg, iv administered upto 600 mins by HPLC-MS/MS analysis; format: ADME, organism-based; design: dose 5 mg/kg, time < 600 min, route iv; conditions: in vivo
# [22] = tested on: MOLM-13; assay: Downregulation of HOXA9 gene in human MOLM-13 cells at 10 uM measured after 3 to 10 days by qPCR analysis; format: functional, cell-based; conditions: time 3-10 day
# [23] = tested on: MOLM-13; assay: Cytotoxicity against human MOLM-13 cells assessed as reduction of cell viability at 20 to 40 uM incubated for 5 to 15 days by DiOC6/ propidium staining based flow cytometry analysis; format: functional; conditions: dose 20-40 µM, time 5-15 day
# [24] = tested on: OCI-AML-3; assay: Cytotoxicity against human OCI-AML-3 cells assessed as reduction of cell viability at 20 to 40 uM incubated for 5 to 15 days by DiOC6/ propidium staining based flow cytometry analysis; format: functional; conditions: dose 20-40 µM, time 5-15 day
# [25] = tested on: MOLM-13; assay: Cytotoxicity against human MOLM-13 cells assessed as metabolic activity at 1 to 40 uM incubated for 10 to 15 days by WST-1 assay; format: functional, cell-based; conditions: dose 1-40 µM, time 10-15 day
# [26] = AUC (0 to t) in fasted BALB/c mouse at 20 mg/kg, iv administered upto 600 mins by HPLC-MS/MS analysis; format: ADME, organism-based; design: dose 20 mg/kg, time < 600 min, route iv; conditions: in vivo
# [27] = Cmax in fasted BALB/c mouse at 5 mg/kg, iv administered upto 600 mins by HPLC-MS/MS analysis; format: ADME, organism-based; design: time < 600 min, dose 5 mg/kg, route iv; conditions: in vivo
# [28] = target: T1, Histone-lysine N-methyltransferase, H3 lysine-79 specific; assay: Binding affinity to human DOT1L assessed as binding free energy difference
# Target sequence in this assay (Q8TEK3 whole entry, looked up): as above
# [29] = Acute toxicity in BALB/c mouse at 20 mg/kg,iv; format: organism-based; conditions: in vivo
# [30] = target: T1, Histone-lysine N-methyltransferase, H3 lysine-79 specific; assay: Inhibition of DOT1L in human SU-DHL-4 cells assessed as decrease in H3K79 methylation at 1 to 10 uM using histone H3 as substrate incubated for 5 days by immunoblotting assay; format: cell-based; conditions: dose 1-10 µM, time 5.0 day, DDE = dose-dependent effect
# Target sequence in this assay (Q8TEK3 whole entry, looked up): as above
# [31] = Half life in fasted BALB/c mouse at 20 mg/kg, iv administered upto 600 mins by HPLC-MS/MS analysis; format: ADME, organism-based; conditions: in vivo
# [32] = Microsomal stability in BALB/c mouse liver microsomes assessed as intrinsic clearance; format: ADME, Microsome; conditions: read-out: CLH
# [33] = Tmax in fasted BALB/c mouse at 5 mg/kg, iv administered upto 600 mins by HPLC-MS/MS analysis; format: ADME, organism-based; conditions: in vivo
# [34] = tested on: MV4-11; assay: Cytotoxicity against human MV4-11 cells assessed as reduction of cell viability up to 10 uM incubated for 72 hrs by celltiter-glo assay; format: functional, cell-based; conditions: MV4-11, 72 h
# [35] = target: T1, Histone-lysine N-methyltransferase, H3 lysine-79 specific; assay: Inhibition of DOT1L in human MOLM-13 cells assessed as decrease in H3K79 methylation at 1 to 10 uM using histone H3 as substrate incubated for 5 days by immunoblotting assay; format: cell-based; conditions: dose 1-10 µM, time 5.0 day, DDE = dose-dependent effect
# [36] = tested on: SUD4; assay: Cytotoxicity against human SU-DHL-4 cells assessed as reduction of cell viability at 20 to 40 uM incubated for 5 to 15 days by DiOC6/ propidium staining based flow cytometry analysis; format: functional; conditions: dose 20-40 µM, time 5-15 day
# [37] = Elimination rate constant in fasted BALB/c mouse at 20 mg/kg, iv administered upto 600 mins by HPLC-MS/MS analysis; format: ADME, organism-based; conditions: in vivo
smiles,measurement,setting,value
CC(C)N(C[C@H]1C[C@@H](c2ccc3c(N)ncnn23)[C@H](O)[C@@H]1O)[C@H]1C[C@@H](CCc2nc3cc(C(C)(C)C)ccc3[nH]2)C1,pEC50,[1],5.06
same,Activity,[2],Dde
same,pEC50,[3],5.11
same,Activity,[4],Active
same,Activity,[5],Dde
same,k el at 10 h,[6],0.000202 s⁻¹
same,remaining at 40 min,[7],41%
same,Activity,[8],Dde
same,Cmax,[9],91.2 µg/mL
same,AUC(0-inf),[10],35000 ng·h/mL
same,half-life,[11],57.2 min
same,Vd,[12],1.18 L/kg
same,pEC50,[13],5.05
same,Vd,[14],1.29 L/kg
same,Tmax,[15],5 min
same,Activity,[16],Dde
same,clearance,[17],14.2 mL/min/kg
same,AUC(0-t) at 10 h,[18],5800 ng·h/mL
same,pIC50,[19],8.68
same,clearance,[20],9.54 mL/min/kg
same,AUC(0-inf),[21],5850 ng·h/mL
same,Activity,[22],Active
same,Activity,[23],Active
same,Activity,[24],Active
same,Activity,[25],Active
same,AUC(0-t) at 10 h,[26],34700 ng·h/mL
same,Cmax,[27],20.6 µg/mL
same,deltaG,[28],-0.717 kcal/mol
same,Activity,[29],Non-Toxic
same,Activity,[30],Dde
same,half-life,[31],93.6 min
same,microsomal CLint,[32],56 µL/min/mg
same,Tmax,[33],5 min
same,pEC50,[34],5.77
same,Activity,[35],Dde
same,Activity,[36],Active
same,k el at 10 h,[37],0.000123 s⁻¹
